Data on two molecules can be found in publication PMC12690121 (Nature Communications, 2025).

The target of one series is T1, ArnC (Salmonella enterica, UniProt O52324).
T1 sequence (O52324 1-327): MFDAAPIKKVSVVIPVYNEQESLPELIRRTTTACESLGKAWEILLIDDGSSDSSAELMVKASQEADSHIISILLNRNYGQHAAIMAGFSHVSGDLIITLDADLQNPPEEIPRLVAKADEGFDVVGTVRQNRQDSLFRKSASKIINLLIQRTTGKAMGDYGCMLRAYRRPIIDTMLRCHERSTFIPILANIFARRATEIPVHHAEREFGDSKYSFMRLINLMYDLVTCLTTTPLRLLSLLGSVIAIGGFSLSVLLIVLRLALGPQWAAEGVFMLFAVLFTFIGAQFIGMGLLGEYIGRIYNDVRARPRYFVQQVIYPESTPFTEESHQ
Put plainly: MST. It counts as binding.

The series “cryo-EM structure” concerns the molecule itself. The experiment in a line: cryo-EM structure.

Turning to `O=c1ccn([C@@H]2O[C@H](COP(=O)(O)OP(=O)(O)O)[C@@H](O)[C@H]2O)c(=O)[nH]1` [UDP], binding on ArnC was characterised by a dissociation constant (Kd) of 8.5 µM.

B1: ArnC from Salmonella enterica (ArnCSe) (enzyme)
chain: MFDAAPIKKVSVVIPVYNEQESLPELIRRTTTACESLGKAWEILLIDDGSSDSSAELMVKASQEADSHIISILLNRNYGQHAAIMAGFSHVSGDLIITLDADLQNPPEEIPRLVAKADEGFDVVGTVRQNRQDSLFRKSASKIINLLIQRTTGKAMGDYGCMLRAYRRPIIDTMLRCHERSTFIPILANIFARRATEIPVHHAEREFGDSKYSFMRLINLMYDLVTCLTTTPLRLLSLLGSVIAIGGFSLSVLLIVLRLALGPQWAAEGVFMLFAVLFTFIGAQFIGMGLLGEYIGRIYNDVRARPRYFVQQVIYPESTPFTEESHQ
As for B1, the “stoichiometry N” value in the series “cryo-EM structure” was determined as 4.

The term Kd denotes the free concentration of one partner at which half of the binding sites on the other are occupied at equilibrium, for simple one-to-one binding. Usually stoichiometry N stands for the number of molecules, sites or subunits per partner or assembly.
